# According to US7566712B2, “Biaryl piperazinyl-pyridine analogues” (Neurogen Corporation, priority 2003, dated 2009):
# Biological target: T1, human capsaicin receptor (Homo sapiens, UniProt Q8NER1)
# T1 construct: pBK-CMV expression construct encoding the full length human capsaicin receptor; expressed in transfected cells
# Experiment: Calcium mobilization assay, determination of antagonist activity (Example 6)
# Format: cell-based
# Details: Table II
# Method in brief: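 Antagonism measured as inhibition of capsaicin-evoked (final concentration = EC50, from an 8-point 1 nM–3 μM curve) Fluo-3 calcium signal in stable hVR1-HEK293 cells. Test compounds at 1–5 μM final, 0.5–6 h dark preincubation at room temperature. IC50 = concentration giving 50% reduction versus agonist-only response.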
# [1] = determined as described in Example 6 (calcium mobilization, antagonist activity)
# [2] = determined as described in Example 6, class symbol
# [3] = IC50 determined as described in Example 6
# [4] = determined as described in Example 6 (antagonist activity), "*" = 1 micromolar or less
# T1 sequence (Q8NER1 whole entry): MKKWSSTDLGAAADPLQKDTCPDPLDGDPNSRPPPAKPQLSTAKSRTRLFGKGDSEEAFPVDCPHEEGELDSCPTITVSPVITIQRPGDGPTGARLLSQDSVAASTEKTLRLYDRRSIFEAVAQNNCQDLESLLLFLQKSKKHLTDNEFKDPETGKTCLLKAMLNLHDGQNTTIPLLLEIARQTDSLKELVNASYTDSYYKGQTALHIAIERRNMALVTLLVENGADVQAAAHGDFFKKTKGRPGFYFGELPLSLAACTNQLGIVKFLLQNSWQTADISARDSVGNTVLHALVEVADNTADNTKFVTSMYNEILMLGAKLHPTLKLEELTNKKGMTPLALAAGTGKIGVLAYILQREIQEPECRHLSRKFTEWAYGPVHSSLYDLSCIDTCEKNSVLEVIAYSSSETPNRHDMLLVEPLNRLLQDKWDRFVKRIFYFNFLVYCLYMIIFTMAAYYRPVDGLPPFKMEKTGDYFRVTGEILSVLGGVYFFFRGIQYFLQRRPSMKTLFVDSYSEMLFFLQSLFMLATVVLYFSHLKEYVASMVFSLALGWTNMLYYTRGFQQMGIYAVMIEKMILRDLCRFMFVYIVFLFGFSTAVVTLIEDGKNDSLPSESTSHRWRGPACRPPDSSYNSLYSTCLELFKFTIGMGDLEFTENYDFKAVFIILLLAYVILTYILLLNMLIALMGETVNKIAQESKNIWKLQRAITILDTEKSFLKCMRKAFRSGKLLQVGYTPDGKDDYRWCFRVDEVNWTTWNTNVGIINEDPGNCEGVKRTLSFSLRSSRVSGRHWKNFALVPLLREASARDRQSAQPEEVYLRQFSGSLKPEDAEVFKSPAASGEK
Structure (SMILES),IC50 [1] [µM],IC50 [4] [µM],further results
"CCc1nccn1-c1nc(-c2cccc(Cl)c2)cc(N2CCN(c3ncccc3C(F)(F)F)CC2)n1 [Example 633, 4-(3-chlorophenyl)-2-(2-ethyl-1H-imidazol-1-yl)-6-{4-[3-(trifluoromethyl)pyridin-2-yl]peperazin-1-yl}pyrimidine]",≤ 1,–,–
"CC(C)N(CCO)c1nc(-c2ccc(F)c(Cl)c2)cc(N2CCN(c3ncccc3C(F)(F)F)CC2)n1 [Example 644, 2-[(4-(3-chloro-4-fluorophenyl)-6-{4-[3-(trifluoromethyl)pyridin-2-yl]piperazin-1-yl}pyrimidin-2-yl)(isopropyl)amino]ethanol]",≤ 1,–,–
"Cc1cc(C)cc(-c2nc(N3CCOCC3)nc(N3CCN(c4ccccn4)CC3)n2)c1 [Example 236, 2-(3,5-dimethylphenyl)-4-morpholin-4-yl-6-(4-pyridin-2-ylpiperazin-1-yl)-1,3,5-triazine]",–,–,IC50 [2]: ≤ 1 µM
"OC[C@H]1CCCN1c1nc(-c2ccc(F)c(Cl)c2)cc(N2CCN(c3ncccc3C(F)(F)F)CC2)n1 [Example 610, [(2R)-1-(4-(3-chloro-4-fluorophenyl)-6-{4-[3-(trifluoromethyl)pyridin-2-yl]piperazin-1-yl}pyrimidin-2-yl)pyrrolidin-2-yl]methanol]",≤ 1,–,–
"C[C@@H]1CN(c2ncccc2C(F)(F)F)CCN1c1cc(-c2ccc(C(C)(C)C)cc2)nc(N2CCOCC2)n1 [Example 519, 4-(4-(4-tert-butylphenyl)-6-{(2R)-2-methyl-4-[3-(trifluoromethyl)pyridin-2-yl]piperazin-1-yl}pyrimidin-2-yl)morpholine]",–,–,IC50 [3]: ≤ 1 µM
"Fc1ccc(-c2cc(N3CCN(c4ncccc4Cl)CC3)nc(N3CCCC3)n2)cc1Cl [Example 713, 4-(3-chloro-4-fluorophenyl)-6-[4-(3-chloropyridin-2-yl)piperazin-1-yl]-2-pyrrolidin-1-ylpyrimidine]",≤ 1,–,–
"Cc1cc(F)ccc1-c1nc(N2CCOCC2)nc(N2CCN(c3ccccn3)CC2)n1 [Example 273, 2-(4-fluoro-2-methylphenyl)-4-morpholin-4-yl-6-(4-pyridin-2-ylpiperazin-1-yl)-1,3,5-triazine]",–,–,IC50 [2]: ≤ 1 µM
"CCN(CC)c1nc(-c2cccc(Cl)c2)cc(N2CCN(c3ncccc3C(F)(F)F)CC2)n1 [Example 597, 4-(3-chlorophenyl)-N,N-diethyl-6-{4-[3-(trifluoromethyl)pyridin-2-yl]piperazin-1-yl}pyrimidin-2-amine]",≤ 1,–,–
"Fc1ccc(-c2cc(N3CCN(c4ncccc4C(F)(F)F)CC3)nc(N3CCC[C@H]3CN3CCCC3)n2)cc1Cl [Example 664, 4-(3-chloro-4-fluorophenyl)-2-[(2S)-2-(pyrrolidin-1-ylmethyl)pyrrolidin-1-yl]-6-{4-[3-(trifluoromethyl)pyridin-2-yl]piperazin-1-yl}pyrimidine]",≤ 1,–,–
"Fc1ccc(-c2nc(N3CCOCC3)nc(N3CCN(c4ccccn4)CC3)n2)cc1F [Example 424, 2-(3,4-difluorophenyl)-4-morpholin-4-yl-6-(4-pyridin-2-ylpiperazin-1-yl)-1,3,5-triazine]",–,–,IC50 [3]: ≤ 1 µM
"Cc1cccc(-c2nc(N3CCN(c4ncccc4C(F)(F)F)CC3)nc(N3CC(C)OC(C)C3)n2)c1 (stereo not shown) [Example 263, 2-(2,6-dimethylmorpholin-4-yl)-4-(3-methylphenyl)-6-{4-[3-(trifluoromethyl)pyridin-2-yl]piperazin-1-yl}-1,3,5-triazine]",–,–,IC50 [2]: ≤ 1 µM
"O=C(O)[C@@H]1CCCN1c1nc(-c2ccc(F)c(Cl)c2)cc(N2CCN(c3ncccc3C(F)(F)F)CC2)n1 [Example 552, 1-(4-(3-chloro-4-fluorophenyl)-6-{4-[3-(trifluoromethyl)pyridin-2-yl]piperazin-1-yl}pyrimidin-2-yl)-L-proline]",–,–,IC50 [3]: ≤ 1 µM
"Cc1cccnc1N1CCN(c2cc(-c3ccc(OC(F)(F)F)cc3)nc(N3CCOCC3)n2)[C@H](C)C1 [Example 527, 4{4[(2R)-2-methyl-4-(3-methylpyridin-2-yl)piperazin-1-yl]-6-[4-(trifluoromethoxy)phenyl]pyrimidin-2-yl}morpholine]",–,–,IC50 [3]: ≤ 1 µM
"Cc1ccc(-c2cc(N3CCN(c4ncccc4Cl)C[C@H]3C)nc(N3CCOCC3)n2)cc1F [Example 496, 4-[4-[(2R)-4-(3-chloropyridin-2-yl)-2-methylpiperazin-1-yl]-6-(3-fluoro-4-methylphenyl)pyrimidin-2-yl]morpholine]",–,–,IC50 [3]: ≤ 1 µM
"Cc1cc(-c2cc(N3CCN(c4ncccc4C(F)(F)F)CC3)nc(N(C)C(C)C)n2)ccc1F [Example 640, 4-(4-fluoro-3-methylphenyl)-N-isopropyl-N-methyl-6-{4-[3-(trifluoromethyl)pyridin-2-yl]piperazin-1-yl}pyrimidin-2-amine]",≤ 1,–,–
"CCOc1cccc(-c2cc(N3CCN(c4ncccc4Cl)C[C@H]3C)nc(N3CCOCC3)n2)c1 [Example 531, 4-[4-[(2R)-4-(3-chloropyridin-2-yl)-2-methylpiperazin-1-yl]-6-(3-ethoxyphenyl)pyrimidin-2-yl]morpholine]",–,–,IC50 [3]: ≤ 1 µM
"Cc1cc(-c2cc(N3CCN(c4ncccc4C(F)(F)F)CC3)nc(N3CCOCC3)n2)ccn1 [Example 575, 4-(4-(2-methylpyridin-4-yl)-6-{4-[3-(trifluoromethyl)pyridin-2-yl]piperazin-1-yl}pyrimidin-2-yl)morpholine]",≤ 1,–,–
"Fc1ccc(-c2cc(N3CCN(c4ncccc4C(F)(F)F)CC3)nc(OCC3CCCO3)n2)cc1Cl (stereo not shown) [Example 556, 4-(3-chloro-4-fluorophenyl)-2-(tetrahydrofuran-2-ylmethoxy)-6-{4-[3-(trifluoromethyl)pyridin-2-yl]piperazin-1-yl}pyrimidine]",–,–,IC50 [3]: ≤ 1 µM
"CCc1ccccc1-c1nc(N2CCOCC2)nc(N2CCN(c3ccccn3)CC2)n1 [Example 274, 2-(2-ethylphenyl)-4-morpholin-4-yl-6-(4-pyridin-2-ylpiperazin-1-yl)-1,3,5-triazine]",–,–,IC50 [2]: ≤ 1 µM
"CC(C)N(C)c1nc(-c2ccc(F)c(Cl)c2)cc(N2CCN(c3ncccc3C(F)(F)F)CC2)n1 [Example 600, 4-(3-chloro-4-fluorophenyl)-N-isopropyl-N-methyl-6-{4-[3-(trifluoromethyl)pyridin-2-yl]piperazin-1-yl}pyrimidin-2-amine]",≤ 1,–,–

# More lines, main results first:
IC50 [1] [µM],IC50 [4] [µM],Structure (SMILES),further results
–,≤ 1,"C[C@@H]1CCCN1c1cc(-c2ccc(Cl)c(F)c2)nc(N2CCN(c3nccnc3Cl)C[C@@H]2C)n1 [Example 963, 4-(4-chloro-3-fluorophenyl)-2-[(2S)-4-(3-chloropyrazin-2-yl)-2-methylpiperazin-1-yl]-6-[(2R)-2-methylpyrrolidin-1-yl]pyrimidine]",–
≤ 1,–,"C[C@@H]1CN(c2ncccc2Cl)CCN1c1cc(-c2ccc(F)c(Cl)c2)nc(SCc2ccccc2)n1 [Example 722, 2-(benzylthio)-4-(3-chloro-4-fluorophenyl)-6-[(2R)-4-(3-chloropyridin-2-yl)-2-methylpiperazin-1-yl]pyrimidine]",–
–,≤ 1,"C[C@@H]1CN(c2ncccc2C(F)(F)F)CCN1c1cc(-c2ccc(F)cc2)nc(N2CCCC2)n1 [Example 782, 4-(4-fluorophenyl)-6-{(2R)-2-methyl-4-[3-(trifluoromethyl)pyridin-2-yl]piperazin-1-yl}-2-pyrrolidin-1-ylpyrirnidine]",–
–,≤ 1,"CC(=O)Nc1cnc(N2CCN(c3cc(-c4ccc(F)c(Cl)c4)nc(N4CCCC4C)n3)CC2)c(C)c1 (stereo not shown) [Example 816, N-(6-{4-[6-(3-chloro-4-fluorophenyl)-2-(2-methylpyrrolidin-1-yl)pyrimidin-4-yl]piperazin-1-yl}-5-methylpyridin-3-yl)acetamide]",–
–,≤ 1,"CN(C)C1CN(c2nc(-c3ccc(F)c(Cl)c3)cc(N3CCN(c4ncccc4C(F)(F)F)CC3)n2)C1 [Example 789, 1-(4-(3-chloro-4-fluorophenyl)-6-{4-[3-(trifluoromethyl)pyridin-2-yl]piperazin-1-yl}pyrimidin-2-yl)-N,N-dimethylazetidin-3-amine]",–
–,≤ 1,"CCCN1CCN(c2nc(-c3ccc(F)c(Cl)c3)cc(N3CCN(c4ncccc4C(F)(F)F)CC3)n2)C(=O)C1 [Example 885, 1-(4-(3-chloro-4-fluorophenyl)-6-{4-[3-(trifluoromethyl)pyridin-2-yl]piperazin-1-yl}pyrimidin-2-yl)-4-propylpiperazin-2-one]",–
–,≤ 1,"C[C@@H]1CN(c2ncccc2Cl)CCN1c1cc(-c2ccc(F)cc2)nc(N2CCCCC2)n1 [Example 844, 4-[(2R)-4-(3-chloropyridin-2-yl)-2-methylpiperazin-1-yl]-6-(4-fluorophenyl)-2-piperidin-1-ylpyrimidine]",–
–,≤ 1,"Cc1ccc(C)n1-c1nc(-c2ccc(F)cc2)cc(N2CCN(c3ncccc3C(F)(F)F)CC2)n1 [Example 875, 2-(2,5-dimethyl-1H-pyrrol-1-yl)-4-(4-fluorophenyl)-6-{4-[3-(trifluoromethyl)pyridin-2-yl]piperazin-1-yl}pyrimidine]",–
–,≤ 1,"CCCN1CCN(c2nc(-c3ccc(F)c(Cl)c3)cc(N3CCN(c4ncc(N)cc4C)CC3)n2)CC1 [Example 819, 6-{4-[6-(3-chloro-4-fluorophenyl)-2-(4-propylpiperazin-1-yl)pyrimidin-4-yl]piperazin-1-yl}-5-methylpyridin-3-amine]",–
–,≤ 1,"Cc1cc(O)cnc1N1CCN(c2cc(-c3ccc(F)c(Cl)c3)nc(N3CCCC3C)n2)CC1 (stereo not shown) [Example 815, 6-{4-[6-(3-chloro-4-fluorophenyl)-2-(2-methylpyrrolidin-1-yl)pyrimidin-4-yl]piperazin-1-yl}-5-methylpyridin-3-ol]",–
–,≤ 1,"C[C@@H]1CN(c2ncccc2Cl)CCN1c1cc(-c2ccc(Cl)c(F)c2)nc(N2CCC[C@H]2C)n1 [Example 934, 4-(4-chloro-3-fluorophenyl)-6-[(2R)-4-(3-chloropyridin-2-yl)-2-methylpiperazin-1-yl]-2-[(2R)-2-methylpyrrolidin-1-yl]pyrimidine]",–
